From ChEMBL document CHEMBL5584298, “Discovery of Cytotoxic Nitric Oxide-Releasing Piperlongumine Derivatives Targeting Wnt/β-Catenin in Colon Cancer Cells” (J Nat Prod, 2024)

Assays:
A549 [1] = assay: Antiproliferative activity against human A549 cells incubated for 72 hrs by MTT assay; format: functional, cell-based; details: A549, 72 h
A549 [2] = assay: Antiproliferative activity against human A549 cells incubated for 24 hrs by MTT assay; format: functional, cell-based; details: A549, 24 h
HCT-116 [3] = assay: Antiproliferative activity against human HCT-116 cells at 0.1 to 100 uM by MTT assay; format: functional, cell-based; details: dose 0.1-100 µM, time 24-72 hrs, TDE = time-dependent effect
HCT-116 [4] = assay: Antiproliferative activity against human HCT-116 cells incubated for 24 hrs by MTT assay; format: functional, cell-based; details: HCT-116, 24 h
HCT-116 [5] = assay: Induction of NO production in human HCT-116 cells incubated for 6 hrs by Griess reagent based assay; format: functional, cell-based; details: dose 1-10 µM
HCT-116 [6] = assay: Antiproliferative activity against human HCT-116 cells incubated for 24 to 72 hrs by MTT assay; format: functional, cell-based; details: dose 0.1-100 µM, time 24-72 hrs
HCT-116 [7] = assay: Antiproliferative activity against human HCT-116 cells incubated for 72 hrs by MTT assay; format: functional, cell-based; details: HCT-116, 72 h
A549 [8] = assay: Antiproliferative activity against human A549 cells at 0.1 to 100 uM by MTT assay; format: functional, cell-based; details: dose 0.1-100 µM, time 24-72 hrs, TDE = time-dependent effect
A549 [9] = assay: Antiproliferative activity against human A549 cells incubated for 24 to 72 hrs by MTT assay; format: functional, cell-based; details: dose 0.1-100 µM, time 24-72 hrs
HCT-116 [10] = assay: Downregulation of beta-catenin expression in human HCT-116 cells cytosol after 24 hrs by Western blotting analysis; format: functional, subcellular; details: dose 0.5-2 µM
[11] = Cytotoxicity against human CCD-841CoN cells incubated for 72 hrs by MTT assay; format: toxicity, cell-based
HCT-116 [12] = assay: Downregulation of beta-catenin expression in human HCT-116 cells nucleus after 24 hrs by Western blotting analysis; format: functional, subcellular; details: dose 0.5-2 µM
[13] = Selectivity index, ratio of IC50 for human CCD-841CoN cells to IC50 for human HCT-116 cells; format: toxicity; details: CCD-841CoN cells and HCT-116 cells, read-out: Ratio IC50
[14] = Cytotoxicity against human CCD-841CoN cells incubated for 24 hrs by MTT assay; format: toxicity, cell-based
HCT-116 [15] = assay: Downregulation of phosphorylated GSK-3beta at Ser9 residue expression in human HCT-116 cells after 24 hrs by Western blotting analysis; format: functional, cell-based; details: dose 0.5-2 µM

| Structure (SMILES) | IC50 (A549 [1]) [µM] | IC50 (A549 [2]) [µM] | Activity (HCT-116 [3]) | IC50 (HCT-116 [4]) [µM] | Activity (HCT-116 [5]) | Activity (HCT-116 [6]) | IC50 (HCT-116 [7]) [µM] | Activity (A549 [8]) | Activity (A549 [9]) | Activity (HCT-116 [10]) | IC50 at 72 h [11] [µM] | Activity (HCT-116 [12]) | selectivity ratio [13] | IC50 at 24 h [14] [µM] | Activity (HCT-116 [15]) |
| --- | --- | --- | --- | --- | --- | --- | --- | --- | --- | --- | --- | --- | --- | --- | --- |
| COc1cc(/C=C/C(=O)N2CCC=C(Cl)C2=O)cc(OC)c1OCCCCC(=O)OCO/N=[N+](\[O-])N1CCOCC1 | 0.7 | 1.1 | Tde | 1.1 | Dose-Dependent Effect | Dose-Dependent Effect | 0.7 | Tde | Dose-Dependent Effect | – | – | – | – | – | – |
| CCN(CC)/[N+]([O-])=N/CONC(=O)/C=C/c1cc(OC)c(OCCCCC(=O)OCO/N=[N+](\[O-])N(CC)CC)c(OC)c1 | 3.4 | 5.7 | Tde | 5.4 | Dose-Dependent Effect | Dose-Dependent Effect | 3.9 | Tde | Dose-Dependent Effect | – | – | – | – | – | – |
| COc1cc(/C=C/C(=O)N2CCC=C(Cl)C2=O)cc(OC)c1OC | – | 10.2 | – | 11.4 | – | – | 6.2 | – | – | – | – | – | – | – | – |
| COc1cc(/C=C/C(=O)NOC/N=[N+](\[O-])N2CCOCC2)cc(OC)c1OCCCCC(=O)OCO/N=[N+](\[O-])N1CCOCC1 | 10.6 | 18.4 | Tde | 35.6 | Dose-Dependent Effect | Dose-Dependent Effect | 28 | Tde | Dose-Dependent Effect | – | – | – | – | – | – |
| CCN(CC)OC(=O)CCCCOc1c(OC)cc(/C=C/C(=O)N2CCC=C(Cl)C2=O)cc1OC | – | – | – | 6.3 | – | – | 2.8 | – | – | – | – | – | – | – | – |
| CCN(CC)/[N+]([O-])=N/OCOC(=O)CCCCOc1c(OC)cc(/C=C/C(=O)N2CCC=C(Cl)C2=O)cc1OC | 0.6 | 0.8 | Tde | 0.9 | Dose-Dependent Effect | Dose-Dependent Effect | 0.6 | Tde | Dose-Dependent Effect | Dose-Dependent Effect | 6.1 | Dose-Dependent Effect | > 10 | 11.3 | Dose-Dependent Effect |
| O=c1[nH]cc(F)c(=O)[nH]1 [FLUOROURACIL] | 24.2 | – | – | 29.6 | – | – | 19.7 | – | – | – | – | – | – | – | – |
| COc1cc(/C=C/C(=O)N2CCC=CC2=O)cc(OC)c1OC [PIPLARTINE] | 7.2 | 13.2 | Tde | 13.3 | – | Dose-Dependent Effect | 8.6 | Tde | Dose-Dependent Effect | – | – | – | – | – | – |
